Source: patent publication US9549918B2, “Stabilized tacrolimus composition” (priority 2008, dated 2017)

assay: Ability of stabilizing agents to dissolve in the melted PEG/Poloxamer vehicle; assay type: physicochemical; settings: 0.5% w/w of substance mixed with PEG/Poloxamer at 80° C.

| Compound | Physical state in vehicle |
| --- | --- |
| Oc1cccc2cccnc12 [8-hydroxychinoline 0.005%, ½SO4, ½H2O, 8-hydroxychinoline] | Not dissolved |
| N.N.O=C(O)CC(O)(CC(=O)O)C(=O)O [Citric acid, (NH4)2] | Not dissolved |
| N.N.N.O=C(O)CC(O)(CC(=O)O)C(=O)O [Citric acid, (NH4)3] | Not dissolved |
| O=C(O)CC(O)(CC(=O)O)C(=O)O [Citric acid, H2O] | Dissolved |
| O=C([O-])CC(O)(CC(=O)[O-])C(=O)[O-].[Na+].[Na+].[Na+] [Citric acid, Na3] | Not dissolved |
| O=C([O-])CC(O)(CC(=O)O)C(=O)O.[Na+] [Citric acid, Na] | Not dissolved |
| O=C(O)[C@H]1OC(O)[C@H](O)[C@@H](O)[C@@H]1O (stereo partly drawn) [D-Glucoronic acid] | Not dissolved |
| O=C([O-])CN(CCN(CC(=O)[O-])CC(=O)[O-])CC(=O)[O-].[Ca+2].[Na+].[Na+] [EDTA, Ca, Na2] | Not dissolved |
| O=C([O-])CN(CCN(CC(=O)[O-])CC(=O)O)CC(=O)[O-].[Na+].[Na+].[Na+] [EDTA, Na3] | Not dissolved |
| O.O.O=C([O-])CN(CCN(CC(=O)[O-])CC(=O)[O-])CC(=O)[O-].[Na+].[Na+].[Na+].[Na+] [EDTA, Na4, 2H2O] | Not dissolved |
| O=C(O)CN(CCN(CC(=O)O)CC(=O)O)CC(=O)O [Ethylene di-amine tetra acetic acid] | Not dissolved |
| O=C(O)C(=O)O [Oxalic acid, 2H2O] | Dissolved |
| O=C([O-])C(=O)[O-].[Ca+2] [Oxalic acid, Ca, xH2O] | Not dissolved |
| N.N.O=C(O)C(O)C(O)C(=O)O (stereo not shown) [Tartaric acid, (NH4)2] | Not dissolved |
| O.O=C([O-])C(O)C(O)C(=O)[O-].O=C([O-])C(O)C(O)C(=O)[O-].[K+].[K+].[K+].[K+] (stereo not shown) [Tartaric acid, K2, ½H2O] | Not dissolved |
| O=C([O-])C(O)C(O)C(=O)O.[K+] (stereo not shown) [Tartaric acid, K] | Not dissolved |
| O=C(O)C(O)C(O)C(=O)O (stereo not shown) [Tartaric acid] | Dissolved |
| O.O=C([O-])CN(CCN(CC(=O)[O-])CC(=O)[O-])CCN(CC(=O)[O-])CC(=O)[O-].[Ca+2].[Na+].[Na+].[Na+] [Triethyleneamine pentaacetic acid, Ca, Na3, H2O] | Not dissolved |
| EDTA, NH4, H2O | Not dissolved |

same assay, conditions: 0.5% w/w of substance mixed with PEG/Poloxamer at 80° C.; listed as citric acid

| Compound | Physical state in vehicle |
| --- | --- |
| O=C(O)CC(O)(CC(=O)O)C(=O)O [Citric acid, H2O] | dissolved |

same assay, conditions: 0.5% w/w of substance mixed with PEG/Poloxamer at 80° C.; listed as oxalic acid

| Compound | Physical state in vehicle |
| --- | --- |
| O=C(O)C(=O)O [Oxalic acid, 2H2O] | dissolved |

same assay, conditions: 0.5% w/w of substance mixed with PEG/Poloxamer at 80° C.; listed as tartaric acid

| Compound | Physical state in vehicle |
| --- | --- |
| O=C(O)C(O)C(O)C(=O)O (stereo not shown) [Tartaric acid] | dissolved |
